Test results published in PMC6662923 (Chemical research in toxicology, 2018).

Columns and labels:
male Swiss Webster mice = test: Lethality assay in mice; settings: for Time of most overdose events after drug exposure: bolus iv injection
[1] = ref Table S4; cited from earlier work
[2] = human liver microsomes, 2 h incubation; cited from earlier work
[3] = post-mortem toxicology reports; cited from earlier work
murine μ-OR = settings: cited from earlier work
Lethality assay in mice = settings: male, Swiss Webster, mouse, in vivo, iv
mice = test system: mice; design: unit not given beside the values; settings: literature value for LD50 in mice, ref not given; cited from earlier work

Compound | Time of most overdose events after drug exposure (male Swiss Webster mice) | Observations after oral dosing (male Swiss Webster mice; oral, no deaths observed) | Solubility in aqueous solution [1] | Conversion to mitragynine [2] | LD50 oral (male Swiss Webster mice; oral, doses given in mg/kg) | Reported urine concentrations in overdose deaths involving Kratom [3] | Mode of binding at the murine μ-OR (murine μ-OR) | LD50 at 24 h (Lethality assay in mice) | LD50 iv, literature value (mice)
CC[C@@H]1CN2CC[C@@]3(O)C(=Nc4cccc(OC)c43)[C@@H]2C[C@@H]1/C(=C\OC)C(=O)OC [7-hydroxymitragynine, 7-Hydroxymitragynine] | ≤ 10 min | severe respiratory depression and seizures were observed | low solubility | 45% |  |  |  |  | 
mitragynine | ≤ 10 min |  | low solubility |  | 547.7 | 0.167 to 1.2 µg/mL | competitive antagonist |  | 
CC(=O)Oc1ccc2c3c1O[C@H]1[C@@H](OC(C)=O)C=C[C@H]4[C@@H](C2)N(C)CC[C@@]341 [heroin] |  |  |  |  |  |  |  | 23.7 mg/kg | 21.8
